{"source": "patent US8092790B2", "about": "“Methods of making formulations to affect insect behavior and/or bird behavior” (Bug Buster, Ltd., priority 2003, dated 2012)", "key": {"[1]": {"details": "25° C.; cited from earlier work"}, "[2]": {"tested_on": "bees (Panurgus banksianus, P. calacaratus)", "details": "in vivo; cited from earlier work"}, "mosquito": {"tested_on": "mosquito", "details": "in vivo; cited from earlier work"}, "bees (Apidae, Psithyrus)": {"tested_on": "bees (Apidae, Psithyrus)", "details": "in vivo; cited from earlier work"}, "[3]": {"tested_on": "Deraeocoris brevis (Uhler)", "details": "on sticky cards; cited from earlier work"}, "[4]": {"tested_on": "Orius tristicolor (White)", "details": "on sticky cards; cited from earlier work"}, "[5]": {"tested_on": "mosquito (Aedes aegyptis)", "assay": "Mosquito repellency on human subject", "format": "in vivo", "details": "second trial; methyl anthranilate 0.00312%, DEET 0.24%; untreated head covered within one minute", "from_the_text": "In these trials, DEET was provided in the commercially available product DEEP WOODS OFF™ repellent (S.C. Johnson & Son, Inc., Racine, Wis.), which has approximately 28.5% active ingredient; 1.5% other isomers and 70% inert ingredients.\nIn a first trial, a human subject was exposed to a mosquito (Aedes aegyptis) rich environment without application of the exemplary compound or DEET. Within less than one minute the subject was covered with the insects. In a second trial, the subject sprayed one unclothed arm with the exemplary compound at a rate of 0.00312% and the other unclothed arm with DEET at a concentration of 0.24%. The subject's head remained untreated. Upon returning to the test area, the subject's head was covered with the insects within one minute. […] In a third trial the subject, after removing the DEET from his/her body, reapplied the exemplary compound to unclothed arms, head and neck before returning to the test area. The subject returned to and remained in the test area for more than one hour without any of the insects landing on his/her arms, hands and head while numerous insects were observed on the clothed portions of his/her anatomy."}, "[6]": {"tested_on": "sunflower seed weevils (Smicronyx spp.)", "assay": "Comparison to DEET product, drawing weevils out of sunflower heads", "format": "in vivo", "from_the_text": "DEET is often used by entomologists in standard procedures to draw sunflower seed weevils (Smicronyx spp.) out of the heads of sunflowers. In this trial, DEET was provided in the commercially available product DEEP WOODS OFF™ repellent (S.C. Johnson and Son's, Racine, Wis.), which has approximately 28.5% active ingredient; 1.5% other isomers and 70% inert ingredients. Forty-two flowers were randomly selected from interiors of three fields. One-half of the flowers were sprayed with the DEET containing repellent while the remaining flowers were sprayed with the exemplary compound at a concentration of approximately 0.00312% methyl anthranilate, which was combined with long chained fatty acids. The number of sunflower weevils was recorded."}, "[7]": {"tested_on": "seed weevil (Smicronyx spp.)", "assay": "Comparison to 24% DEET on sunflower seed heads", "format": "in vivo", "details": "composition with 0.006% methyl anthranilate; DEET as 24% solution", "from_the_text": "An exemplary composition was compared to N,N-Diethyl-m-toluamide (DEET). The exemplary composition included an exemplary compound, methyl anthranilate (e.g., BIRDSHIELD™ at 0.006% methyl anthranilate), and an insecticide, esfenvalerate (e.g., ASANA™). A 24% DEET solution is often used in a standard evaluation process by entomologists for evaluating seed weevil (Smicronyx spp.) infestations."}, "sand fly": {"tested_on": "sand fly", "details": "in vivo; cited from earlier work"}, "house fly": {"tested_on": "house fly", "details": "in vivo; cited from earlier work"}, "Aenictus": {"tested_on": "Aenictus", "details": "in vivo; cited from earlier work"}, "[8]": {"tested_on": "green lacewing (Chrysopa nigricornis Bermeister)", "details": "in vivo; cited from earlier work"}, "birds": {"tested_on": "birds", "details": "in vivo; cited from earlier work"}, "bees (Apis mellifera L.)": {"tested_on": "bees (Apis mellifera L.)", "details": "in small groups; cited from earlier work"}}, "data": [{"molecule": "CC(C)C(C(=O)OC(C#N)c1cccc(Oc2ccccc2)c1)c1ccc(Cl)cc1", "note": "(single isomer, unassigned; (+)) [Esfenvalerate, (+)Alpha-cyano-3-phenoxybenzyl-(+)-alpha-(4-chlorophenyl)isovalerate]", "values": [{"measurement": "water solubility", "setting": "[1]", "result": "< 0.3", "unit": "µg/mL"}]}, {"molecule": "CCCCCCCO", "note": "[1-heptanol]", "values": [{"measurement": "effect on behavior of bees", "setting": "[2]", "result": "affect behavior of bees"}]}, {"molecule": "OCCc1ccccc1", "note": "[2-phenyl-ethanol]", "values": [{"measurement": "effect on behavior of bees", "setting": "[2]", "result": "affect behavior of bees"}]}, {"molecule": "CCCCCCCCCC(C)OC(C)=O", "note": "(centres unmarked) [2-undecyl acetate]", "values": [{"measurement": "effect on mosquito", "setting": "mosquito", "result": "mosquito attractant"}]}, {"molecule": "CC(C)=CCCC(C)CCO", "note": "(centres unmarked) [3,7-dimethyl-6-octen-1-ol]", "values": [{"measurement": "effect on behavior of bees", "setting": "bees (Apidae, Psithyrus)", "result": "act as a territory marker"}]}, {"molecule": "CC/C=C/CCOC(C)=O", "note": "[(E)-3-hexenyl acetate]", "values": [{"measurement": "attraction of Deraeocoris brevis", "setting": "[3]", "result": "may be attracted"}, {"measurement": "attraction of Orius tristicolor", "setting": "[4]", "result": "may be attracted"}]}, {"molecule": "CCN(CC)C(=O)c1cccc(C)c1", "note": "[DEET, N,N-Diethyl-m-toluamide, reference compound]", "values": [{"measurement": "water solubility", "setting": "[1]", "result": "approximately 912 mg/L"}, {"measurement": "mosquitoes on treated unclothed arm", "setting": "[5]", "result": "No mosquitoes were found"}, {"measurement": "Number of insects, Mean", "setting": "[6]; Field No. 1", "result": 4.4}, {"measurement": "Number of insects, Total", "setting": "[6]; Field No. 1", "result": 44}, {"measurement": "Number of insects, Mean", "setting": "[6]; Field No. 2", "result": 12}, {"measurement": "Number of insects, Total", "setting": "[6]; Field No. 2", "result": 37}, {"measurement": "Number of insects, Mean", "setting": "[6]; Field No. 3", "result": 10.3}, {"measurement": "Number of insects, Total", "setting": "[6]; Field No. 3", "result": 86}, {"measurement": "insects observed in sprayed sunflower seed heads", "setting": "[7]", "result": "No insects were observed"}]}, {"molecule": "CC1=CCC(C(C)(C)O)CC1", "note": "(stereo not drawn) [alpha-terpineol]", "values": [{"measurement": "effect on sand fly", "setting": "sand fly", "result": "sand fly attractant"}]}, {"molecule": "CC=CC(C)C(=O)OCC", "note": "(centres unmarked) [ethyl ester of 2-methyl-3-pentenoic acid]", "values": [{"measurement": "effect on house fly", "setting": "house fly", "result": "house fly attractant"}]}, {"molecule": "CC(C)=CCC/C(C)=C/C=O", "note": "[geranial]", "values": [{"measurement": "effect on behavior of bees", "setting": "[2]", "result": "affect behavior of bees"}]}, {"molecule": "CC(C)=CCC/C(C)=C/CO", "note": "[geraniol, 3,7-dimethyl-2,6-octadien-I-ol]", "values": [{"measurement": "effect on behavior of bees", "setting": "[2]", "result": "affect behavior of bees"}]}, {"molecule": "CC(C)=CCC/C(C)=C/C(=O)O", "note": "[geranolic acid]", "values": [{"measurement": "effect on behavior of bees", "setting": "[2]", "result": "affect behavior of bees"}]}, {"molecule": "COC(=O)c1cccnc1", "note": "[methyl nicotinate]", "values": [{"measurement": "semiochemical function for Aenictus", "setting": "Aenictus", "result": "trail semiochemicals"}]}, {"molecule": "COC(=O)c1ccccc1O", "note": "[methyl salicylate]", "values": [{"measurement": "attraction of green lacewing", "setting": "[8]", "result": "attract"}]}, {"molecule": "CC(C)=CCC/C(C)=C\\C=O", "note": "[neral]", "values": [{"measurement": "effect on behavior of bees", "setting": "[2]", "result": "affect behavior of bees"}]}, {"molecule": "CC(C)=CCC/C(C)=C\\CO", "note": "[nerol]", "values": [{"measurement": "effect on behavior of bees", "setting": "[2]", "result": "affect behavior of bees"}]}, {"molecule": "CC(C)=CCC/C(C)=C\\C(=O)O", "note": "[nerolicacid]", "values": [{"measurement": "effect on behavior of bees", "setting": "[2]", "result": "affect behavior of bees"}]}, {"molecule": "CC(=O)c1ccccc1N", "note": "[o-aminoacetophone, o-aminoacetophenone]", "values": [{"measurement": "repellency to birds", "setting": "birds", "result": "exhibit repellency to birds"}, {"measurement": "effect on bees", "setting": "bees (Apis mellifera L.)", "result": "repels bees"}]}, {"molecule": "bisabolene", "values": [{"measurement": "effect on house fly", "setting": "house fly", "result": "house fly repellent"}]}]}
